# Substitutions are numbered along the chain they refer to. pIC50: −log10 of the molar value.
# Test system: VCaP cells
# Experiment: Inhibition of proliferation of VCaP cells (WST-8)
# Format: cell-based
# Conditions: Homo sapiens, VCaP, 168 h, read-out: IC50 for inhibiting the proliferation of VCaP cells
# In short: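 VCaP FGC cells, 15000 per well in DMEM with 10% FBS, were cultured at 37° C, 5% CO2. On day nine, WST-8 reagent was added to read proliferation.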
row,Compound,pIC50
1,N#Cc1ccc(O[C@H]2CC[C@H](NC(=O)c3ccc(N4CCC(N5CCC6(CCc7ccc8c(c7O6)CN(C6CCC(=O)NC6=O)C8=O)CC5)CC4)nn3)CC2)cc1Cl (stereo partly drawn) [Compound 171],9.00
2,N#Cc1ccc(O[C@H]2CC[C@H](NC(=O)c3ccc(N4CC(N5CCC6(CCc7ccc8c(c7O6)CN(C6CCC(=O)NC6=O)C8=O)CC5)C4)nn3)CC2)cc1Cl (stereo partly drawn) [Compound 172],4.10
3,N#Cc1ccc(O[C@H]2CC[C@H](NC(=O)c3ccc(N4CCC(N5CCC(N6CCC7(CC6)COc6c7ccc7c6CN(C6CCC(=O)NC6=O)C7=O)CC5)CC4)nn3)CC2)cc1Cl (stereo partly drawn) [Compound 173],9.00
4,N#Cc1ccc(O[C@H]2CC[C@H](NC(=O)c3ccc(N4CC(N5CCC6(CC5)COc5c(ccc7c5C(=O)N(C5CCC(=O)NC5=O)C7)C6)C4)nn3)CC2)cc1Cl (stereo partly drawn) [Compound 191],< 4.05

# Same assay, conditions: Homo sapiens; VCaP cells, 168 hours, WST-8 absorbance at 450 nm; read-out: IC50 for inhibiting the proliferation of VCaP cells
row,Compound,pIC50
1,N#Cc1ccc(O[C@H]2CC[C@H](NC(=O)c3ccc(N4CCC5(CCC(N6CCC7(CCc8ccc9c(c8O7)CN(C7CCC(=O)NC7=O)C9=O)CC6)CC5)CC4)nn3)CC2)cc1Cl (stereo partly drawn) [Compound 150],5.48
2,N#Cc1ccc(O[C@H]2CC[C@H](NC(=O)c3ccc(N4CC5(CC(N6CCC7(CCc8ccc9c(c8O7)CN(C7CCC(=O)NC7=O)C9=O)CC6)C5)C4)nn3)CC2)cc1Cl (stereo partly drawn) [Compound 152],< 4.05

# Test system: LNCaP FGC cells
# Experiment: Inhibition of proliferation of LNCaP cells (WST-8)
# Format: cell-based
# Conditions: Homo sapiens, LNCaP, 96 h, LNCaP FGC cells, 96 hours, WST-8 absorbance at 450 nm; read-out: IC50 for inhibiting the proliferation of LNCaP cells
# Description: The cells were cultured in a cell culture incubator with 5% CO2 at 37° C. overnight. […] On the sixth day, 96 well plates were taken out, and 20 μL of WST-8 (Beytime, C0040) reagent was added to each well.
row,Compound,pIC50
1,N#Cc1ccc(O[C@H]2CC[C@H](NC(=O)c3ccc(N4CCC5(CCC(N6CCC7(CCc8ccc9c(c8O7)CN(C7CCC(=O)NC7=O)C9=O)CC6)CC5)CC4)nn3)CC2)cc1Cl (stereo partly drawn) [Compound 150],5.50
2,N#Cc1ccc(O[C@H]2CC[C@H](NC(=O)c3ccc(N4CC5(CC(N6CCC7(CCc8ccc9c(c8O7)CN(C7CCC(=O)NC7=O)C9=O)CC6)C5)C4)nn3)CC2)cc1Cl (stereo partly drawn) [Compound 152],4.55

# Same assay, conditions: Homo sapiens, LNCaP, 96 h, read-out: IC50 for inhibiting the proliferation of LNCaP cells, LNCaP FGC cells, 96 hours, WST-8 absorbance at 450 nm
row,Compound,pIC50
1,N#Cc1ccc(O[C@H]2CC[C@H](NC(=O)c3ccc(N4CCC(N5CCC6(CCc7ccc8c(c7O6)CN(C6CCC(=O)NC6=O)C8=O)CC5)CC4)nn3)CC2)cc1Cl (stereo partly drawn) [Compound 171],4.87
2,N#Cc1ccc(O[C@H]2CC[C@H](NC(=O)c3ccc(N4CC(N5CCC6(CCc7ccc8c(c7O6)CN(C6CCC(=O)NC6=O)C8=O)CC5)C4)nn3)CC2)cc1Cl (stereo partly drawn) [Compound 172],4.04
3,N#Cc1ccc(O[C@H]2CC[C@H](NC(=O)c3ccc(N4CCC(N5CCC(N6CCC7(CC6)COc6c7ccc7c6CN(C6CCC(=O)NC6=O)C7=O)CC5)CC4)nn3)CC2)cc1Cl (stereo partly drawn) [Compound 173],4.91
4,N#Cc1ccc(O[C@H]2CC[C@H](NC(=O)c3ccc(N4CC(N5CCC6(CC5)COc5c(ccc7c5C(=O)N(C5CCC(=O)NC5=O)C7)C6)C4)nn3)CC2)cc1Cl (stereo partly drawn) [Compound 191],4.82

# Target: T1, AR protein (Homo sapiens, UniProt P10275, T878A)
# T1 construct: degradation activity of the compounds disclosed in the present disclosure on AR protein in LNCaP cells; host or cells: LNCaP FGC
# T1 sequence (P10275 1-920 T878A): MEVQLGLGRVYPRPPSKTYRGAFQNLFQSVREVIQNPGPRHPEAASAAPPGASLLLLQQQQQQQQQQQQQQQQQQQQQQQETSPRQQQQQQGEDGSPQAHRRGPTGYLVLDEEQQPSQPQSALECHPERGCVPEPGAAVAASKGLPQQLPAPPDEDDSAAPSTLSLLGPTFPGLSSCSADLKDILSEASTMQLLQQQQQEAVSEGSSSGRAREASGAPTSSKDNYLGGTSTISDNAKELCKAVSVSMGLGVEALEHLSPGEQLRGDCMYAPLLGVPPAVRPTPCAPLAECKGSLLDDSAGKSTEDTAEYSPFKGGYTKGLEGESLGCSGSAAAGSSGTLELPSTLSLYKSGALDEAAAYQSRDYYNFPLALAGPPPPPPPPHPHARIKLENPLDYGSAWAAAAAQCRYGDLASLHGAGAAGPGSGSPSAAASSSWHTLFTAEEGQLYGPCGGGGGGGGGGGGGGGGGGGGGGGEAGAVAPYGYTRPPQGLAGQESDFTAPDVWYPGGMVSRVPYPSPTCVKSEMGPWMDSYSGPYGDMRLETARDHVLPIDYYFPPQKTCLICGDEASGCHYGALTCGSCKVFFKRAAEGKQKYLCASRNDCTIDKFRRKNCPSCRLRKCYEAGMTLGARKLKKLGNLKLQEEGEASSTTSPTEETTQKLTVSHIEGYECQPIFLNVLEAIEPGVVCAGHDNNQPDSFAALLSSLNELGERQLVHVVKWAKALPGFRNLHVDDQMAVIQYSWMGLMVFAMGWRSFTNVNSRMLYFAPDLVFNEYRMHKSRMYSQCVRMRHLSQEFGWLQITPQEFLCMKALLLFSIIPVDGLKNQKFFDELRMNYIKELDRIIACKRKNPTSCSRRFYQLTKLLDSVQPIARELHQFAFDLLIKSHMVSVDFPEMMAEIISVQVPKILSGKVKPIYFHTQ
# Experiment: Degradation of AR protein in LNCaP cells (Western blot)
# Format: cell-based
# Conditions: LNCaP cells, compound 10 nM, 8 hours, Western blot grayscale, GAPDH internal reference; read-out: Degradation rates of the AR protein in LNCaP cells, 10 nM (%)
# In short: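 AR assessed by SDS-PAGE/Western blot with infrared imaging; band greyscale normalised to GAPDH gave percent degradation.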
row,Compound,inhibition at 0.01 µM [%]
1,N#Cc1ccc(O[C@H]2CC[C@H](NC(=O)c3ccc(N4CCC5(CCC(N6CCC7(CCc8ccc9c(c8O7)CN(C7CCC(=O)NC7=O)C9=O)CC6)CC5)CC4)nn3)CC2)cc1Cl (stereo partly drawn) [Compound 150],52
2,N#Cc1ccc(O[C@H]2CC[C@H](NC(=O)c3ccc(N4CC5(CC(N6CCC7(CCc8ccc9c(c8O7)CN(C7CCC(=O)NC7=O)C9=O)CC6)C5)C4)nn3)CC2)cc1Cl (stereo partly drawn) [Compound 152],45

# Same assay, conditions: LNCaP cells, compound 100 nM, 8 hours, Western blot grayscale, GAPDH internal reference; read-out: Degradation rates of the AR protein in LNCaP cells, 100 nM (%)
row,Compound,inhibition at 0.1 µM [%]
1,N#Cc1ccc(O[C@H]2CC[C@H](NC(=O)c3ccc(N4CCC5(CCC(N6CCC7(CCc8ccc9c(c8O7)CN(C7CCC(=O)NC7=O)C9=O)CC6)CC5)CC4)nn3)CC2)cc1Cl (stereo partly drawn) [Compound 150],35
2,N#Cc1ccc(O[C@H]2CC[C@H](NC(=O)c3ccc(N4CC5(CC(N6CCC7(CCc8ccc9c(c8O7)CN(C7CCC(=O)NC7=O)C9=O)CC6)C5)C4)nn3)CC2)cc1Cl (stereo partly drawn) [Compound 152],24

# Same assay, conditions: LNCaP, 8 h, read-out: Degradation rates of the AR protein in LNCaP cells, 10 nM (%)
row,Compound,inhibition at 0.01 µM [%]
1,N#Cc1ccc(O[C@H]2CC[C@H](NC(=O)c3ccc(N4CCC(N5CCC6(CCc7ccc8c(c7O6)CN(C6CCC(=O)NC6=O)C8=O)CC5)CC4)nn3)CC2)cc1Cl (stereo partly drawn) [Compound 171],22
2,N#Cc1ccc(O[C@H]2CC[C@H](NC(=O)c3ccc(N4CC(N5CCC6(CCc7ccc8c(c7O6)CN(C6CCC(=O)NC6=O)C8=O)CC5)C4)nn3)CC2)cc1Cl (stereo partly drawn) [Compound 172],12
3,N#Cc1ccc(O[C@H]2CC[C@H](NC(=O)c3ccc(N4CCC(N5CCC(N6CCC7(CC6)COc6c7ccc7c6CN(C6CCC(=O)NC6=O)C7=O)CC5)CC4)nn3)CC2)cc1Cl (stereo partly drawn) [Compound 173],75
4,N#Cc1ccc(O[C@H]2CC[C@H](NC(=O)c3ccc(N4CC(N5CCC6(CC5)COc5c(ccc7c5C(=O)N(C5CCC(=O)NC5=O)C7)C6)C4)nn3)CC2)cc1Cl (stereo partly drawn) [Compound 191],-2

# Same assay, conditions: LNCaP, 8 h, read-out: Degradation rates of the AR protein in LNCaP cells, 100 nM (%)
row,Compound,inhibition at 0.1 µM [%]
1,N#Cc1ccc(O[C@H]2CC[C@H](NC(=O)c3ccc(N4CCC(N5CCC6(CCc7ccc8c(c7O6)CN(C6CCC(=O)NC6=O)C8=O)CC5)CC4)nn3)CC2)cc1Cl (stereo partly drawn) [Compound 171],44
2,N#Cc1ccc(O[C@H]2CC[C@H](NC(=O)c3ccc(N4CC(N5CCC6(CCc7ccc8c(c7O6)CN(C6CCC(=O)NC6=O)C8=O)CC5)C4)nn3)CC2)cc1Cl (stereo partly drawn) [Compound 172],33
3,N#Cc1ccc(O[C@H]2CC[C@H](NC(=O)c3ccc(N4CCC(N5CCC(N6CCC7(CC6)COc6c7ccc7c6CN(C6CCC(=O)NC6=O)C7=O)CC5)CC4)nn3)CC2)cc1Cl (stereo partly drawn) [Compound 173],72
4,N#Cc1ccc(O[C@H]2CC[C@H](NC(=O)c3ccc(N4CC(N5CCC6(CC5)COc5c(ccc7c5C(=O)N(C5CCC(=O)NC5=O)C7)C6)C4)nn3)CC2)cc1Cl (stereo partly drawn) [Compound 191],4

# Target: T2, AR protein (Homo sapiens, UniProt P10275)
# T2 construct: degradation activity of the compounds disclosed in the present disclosure on AR protein in VCaP cells; host or cells: VCaP
# T2 sequence (P10275 1-920): T1 sequence (P10275 1-920 T878A) with A878T
# Experiment: Degradation of AR protein in VCaP cells (Western blot)
# Format: cell-based
# Conditions: compound at 10 nM, 8 hours, read-out: Degradation rate of the AR protein in VCaP cells, 10 nM (%)
# In short: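 VCaP cells treated with compound alongside solvent controls for 8 h, then lysed in RIPA and protein quantified by BCA. AR detected by SDS-PAGE/Western blot with infrared imaging. Degradation rate calculated from band grayscale, with GAPDH as internal reference.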
row,Compound,inhibition at 0.01 µM [%]
1,N#Cc1ccc(O[C@H]2CC[C@H](NC(=O)c3ccc(N4CCC5(CCC(N6CCC7(CCc8ccc9c(c8O7)CN(C7CCC(=O)NC7=O)C9=O)CC6)CC5)CC4)nn3)CC2)cc1Cl (stereo partly drawn) [Compound 150],65
2,N#Cc1ccc(O[C@H]2CC[C@H](NC(=O)c3ccc(N4CC5(CC(N6CCC7(CCc8ccc9c(c8O7)CN(C7CCC(=O)NC7=O)C9=O)CC6)C5)C4)nn3)CC2)cc1Cl (stereo partly drawn) [Compound 152],51
3,N#Cc1ccc(O[C@H]2CC[C@H](NC(=O)c3ccc(N4CCC(N5CCC6(CCc7ccc8c(c7O6)CN(C6CCC(=O)NC6=O)C8=O)CC5)CC4)nn3)CC2)cc1Cl (stereo partly drawn) [Compound 171],46
4,N#Cc1ccc(O[C@H]2CC[C@H](NC(=O)c3ccc(N4CC(N5CCC6(CCc7ccc8c(c7O6)CN(C6CCC(=O)NC6=O)C8=O)CC5)C4)nn3)CC2)cc1Cl (stereo partly drawn) [Compound 172],-9
5,N#Cc1ccc(O[C@H]2CC[C@H](NC(=O)c3ccc(N4CCC(N5CCC(N6CCC7(CC6)COc6c7ccc7c6CN(C6CCC(=O)NC6=O)C7=O)CC5)CC4)nn3)CC2)cc1Cl (stereo partly drawn) [Compound 173],75
6,N#Cc1ccc(O[C@H]2CC[C@H](NC(=O)c3ccc(N4CC(N5CCC6(CC5)COc5c(ccc7c5C(=O)N(C5CCC(=O)NC5=O)C7)C6)C4)nn3)CC2)cc1Cl (stereo partly drawn) [Compound 191],31

# Same assay, conditions: compound at 100 nM, 8 hours, read-out: Degradation rate of the AR protein in VCaP cells, 100 nM (%)
row,Compound,inhibition at 0.1 µM [%]
1,N#Cc1ccc(O[C@H]2CC[C@H](NC(=O)c3ccc(N4CCC5(CCC(N6CCC7(CCc8ccc9c(c8O7)CN(C7CCC(=O)NC7=O)C9=O)CC6)CC5)CC4)nn3)CC2)cc1Cl (stereo partly drawn) [Compound 150],86
2,N#Cc1ccc(O[C@H]2CC[C@H](NC(=O)c3ccc(N4CC5(CC(N6CCC7(CCc8ccc9c(c8O7)CN(C7CCC(=O)NC7=O)C9=O)CC6)C5)C4)nn3)CC2)cc1Cl (stereo partly drawn) [Compound 152],72
3,N#Cc1ccc(O[C@H]2CC[C@H](NC(=O)c3ccc(N4CCC(N5CCC6(CCc7ccc8c(c7O6)CN(C6CCC(=O)NC6=O)C8=O)CC5)CC4)nn3)CC2)cc1Cl (stereo partly drawn) [Compound 171],62
4,N#Cc1ccc(O[C@H]2CC[C@H](NC(=O)c3ccc(N4CC(N5CCC6(CCc7ccc8c(c7O6)CN(C6CCC(=O)NC6=O)C8=O)CC5)C4)nn3)CC2)cc1Cl (stereo partly drawn) [Compound 172],-14
5,N#Cc1ccc(O[C@H]2CC[C@H](NC(=O)c3ccc(N4CCC(N5CCC(N6CCC7(CC6)COc6c7ccc7c6CN(C6CCC(=O)NC6=O)C7=O)CC5)CC4)nn3)CC2)cc1Cl (stereo partly drawn) [Compound 173],86
6,N#Cc1ccc(O[C@H]2CC[C@H](NC(=O)c3ccc(N4CC(N5CCC6(CC5)COc5c(ccc7c5C(=O)N(C5CCC(=O)NC5=O)C7)C6)C4)nn3)CC2)cc1Cl (stereo partly drawn) [Compound 191],68

# Reference: patent publication US20260234157A1, “COMPOUND AND METHOD FOR TARGETED DEGRADATION OF ANDROGEN RECEPTOR” (Gan & Lee Pharmaceuticals Co., Ltd., priority 2023, published 2026)
